Source: patent EP0139983A1, “Crystalline salts of L or (S)-3-(3,4-dihydroxyphenyl)-2-methylalanine esters and process” (Merck & Co., Inc., priority 1983, dated 1985)
Counter-ions that a name gives are not always drawn. Like-named read-outs stand apart in the source and are kept apart here.

Assays:
[1] = Solubility in aqueous media; format: physicochemical; conditions: salt solubility is system dependent (amount of salt present, relative amount of (R) and (S) salts)
[2] = Stability (aqueous environment, mechanical stress, heat and compression); format: physicochemical; conditions: subjected to an aqueous environment or to mechanical stress such as grinding

SMILES	solubility [1]	also measured
CC(OC(=O)C(C)(C)C)OC(=O)C(C)(N)Cc1ccc(O)c(O)c1 (mixture of isomers) [solvated phosphate salt mixture of (R,S)-POE ester of methyl]	57 to 197 grams per liter	–
C[C@](N)(Cc1ccc(O)c(O)c1)C(=O)O (single isomer, unassigned) [methyldopa, L or (S)-3-(3,4-dihydroxyphenyl)-2-methylalanine]	–	solubility ([1]; read-out: solubility): 10000 µg/mL
CC(OC(=O)C(C)(C)C)OC(=O)[C@@](C)(N)Cc1ccc(O)c(O)c1 (stereo partly drawn) [POE ester bases, (R,S)-l-pivaloyloxyethyl (S)-3-(3,4-dihydroxyphenyl)-2-methylalaninate]	–	stability [2]: tend to be unstable
CC(OC(=O)C(C)(C)C)OC(=O)C(C)(N)Cc1ccc(O)c(O)c1 (stereo not shown) [solvated tartaric acid salt mixture]	156 to 383 grams per liter	–
